From the supplement of paper PMC4858399
Where a name gives a salt, the structure may show the parent alone.

Key:
Settings in all cases: exposure time 48 h
[1] = system: Caenorhabditis elegans N2; assay: AC50 for larval growth inhibition (Hill fit); higher = less potent
Summary of the method: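 Synchronised C. elegans N2 L1 larvae (50 per well, 96-well plates) were grown for 48 h at 20°C in K-medium with killed OP50, 1% DMSO and 0.5–200 µM chemical. The COPAS Biosort measured each worm's size as extinction, which was log-transformed and averaged per well. AC50 came from a constrained Hill fit by weighted genetic-algorithm regression on wells with at least 10 worms. Out-of-range values are censored.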

[2] = system: Caenorhabditis elegans N2; assay: lowest effective concentration for larval growth inhibition (size below effect threshold); higher = less potent
Summary of the method: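 L1 larvae of C. elegans N2 (50 per 96-well) were grown in K-medium with killed bacteria and 1% DMSO, with the chemical at 0.5, 1, 5, 10, 50, 100 or 200 µM, for 48 h at 20°C. Per-worm extinction from the Biosort stood for size and was log-transformed into well means. For each chemical, the lowest effective concentration is the first dose where plate-adjusted mean size falls under the threshold and stays under it at the higher doses, using a threshold of 5.665.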

[3] = system: Caenorhabditis elegans N2; assay: mean nematode size ln(EXT) after 48 h, plate-adjusted (DMSO control set to 6) (ln(EXT), control-adjusted); higher = larger nematodes / less growth inhibition
Summary of the method: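 Worms were measured individually for extinction on the Biosort after 48 h at 20°C. They began as synchronised C. elegans N2 L1 larvae in K-medium with killed OP50, 1% DMSO and 0.5–200 µM chemical. Once debris had been removed by a growth model, values were natural-logged and averaged per well to give mean size. The plate adjustment subtracted the vehicle control mean and added 6.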

Row | Compound | AC50 for larval growth inhibition [1] [µM] | lowest effective concentration [2] [µM] | mean nematode size ln(EXT) (ln) ([3]; 0.5 µM) | mean nematode size ln(EXT) (ln) ([3]; 1 µM) | mean nematode size ln(EXT) (ln) ([3]; 5 µM) | mean nematode size ln(EXT) (ln) ([3]; 10 µM) | mean nematode size ln(EXT) (ln) ([3]; 50 µM) | mean nematode size ln(EXT) (ln) ([3]; 100 µM) | mean nematode size ln(EXT) (ln) ([3]; 200 µM)
1 | CC(C)CCCCCCCOC(=O)CCCCC(=O)OCCCCCCCC(C)C [Diisodecyl adipate] | > 200 | 200 | 5.86 | 5.91 | 5.83 | 5.89 | 5.89 | 5.89 | 5.53
2 | CCN(Cc1cccnc1)C(=O)c1cccc(Cl)c1[C@]1(C)C(=O)N(Cc2ccc(OC)cc2OC)c2ccc(Cl)cc21 | 3.78 | 10 | 5.85 | 5.78 | 5.8 | 5.4 | 5.54 | 5.37 | 5.39
3 | COc1cccc(-c2ccc(/C=C\CN3CCCCCC3)cc2Cl)c1 | 90.6 | 5 | 5.88 | 5.69 | 5.61 | 5.5 | 4.98 | 4.39 | 
4 | O=C(O)C(F)(F)C(F)(F)C(F)(F)C(F)(F)C(F)(F)C(F)(F)C(F)(F)C(F)(F)F [Perfluorononanoic acid] | 39 | 10 | 5.85 | 5.84 | 5.81 | 5.61 | 4.27 | 3.92 | 3.1
5 | Nc1ccn([C@@H]2O[C@H](CO)[C@@H](O)[C@@H]2O)c(=O)n1 [Cytarabine HCl] | > 200 | 200 | 5.96 | 5.87 | 5.95 | 6 | 5.89 | 6.03 | 5.47
6 | CN(C)c1nc(=O)n(C2CCCCC2)c(=O)n1C [Hexazinone] | 109 | 200 | 5.85 | 5.89 | 5.89 | 5.92 | 6 | 5.92 | 5.62
7 | CC(C)(OOC(C)(C)c1ccccc1)c1ccccc1 [Dicumyl peroxide’-(Dioxydipropane-2,2-diyl)dibenzene)] | > 200 | 50 | 5.83 | 5.8 | 5.83 | 5.82 | 5.62 | 5.38 | 5.45
8 | CC(C)(C)C(O)(CCc1ccc(Cl)cc1)Cn1cncn1 (stereo unspecified) [Tebuconazole] | 144 | 50 | 5.91 | 5.93 | 5.86 | 5.81 | 5.26 | 5.21 | 4.07
9 | O=S(=O)(O)C(F)(F)C(F)(F)C(F)(F)C(F)(F)C(F)(F)C(F)(F)C(F)(F)C(F)(F)F [Heptadecafluorooctanesulfonic acid potassium salt] | 11.4 | ≤ 0.5 | 5.46 | 5.57 | 5.12 | 4.63 | 3.8 | 3.62 | 3.47
10 | CCSC(=O)N(CC)C1CCCCC1 [Cycloate] | 105 | 200 | 6.06 | 6.1 | 5.93 | 6.05 | 6.03 | 5.76 | 5.06
11 | CCCCCCCCCCCCc1cccc(S(=O)(=O)O)c1 [Triethanolamine dodecylbenzene sulfonate] | 50.5 | 50 | 5.43 | 5.59 | 5.54 | 5.69 | 5.03 | 4.02 | 4.04
12 | O=C(O)CCCCC(=O)O [Adipic acid] | > 200 | 200 | 5.82 | 5.73 | 5.75 | 5.76 | 5.76 | 5.74 | 5.5
13 | CCCCCCCCCCO [1-Decanol (Decanol)] | 143 | 200 | 5.95 | 5.91 | 5.83 | 5.85 | 5.79 | 5.69 | 3.42
14 | O=C(O)C1(c2ccc3c(c2)OC[C@H](Cc2ccc(-c4ccccc4)cc2)[C@H]3O)CCCC1 | 52.8 | 50 | 5.91 | 5.83 | 5.77 | 5.9 | 5.16 | 4.25 | 4.18
15 | Clc1nc(Cl)c(Cl)c(Cl)c1Cl [Pentachloropyridine] | > 200 | 50 | 5.87 | 5.81 | 5.83 | 5.82 | 5.6 | 5.48 | 5.59
16 | O=C(N[C@H]1CN2CCC1CC2)c1cc2ccoc2cn1 | > 200 | 200 | 5.73 | 5.89 | 5.88 | 5.78 | 5.86 | 5.86 | 5.65
17 | C=CC1(C)OC(=O)N(c2cc(Cl)cc(Cl)c2)C1=O (stereo unspecified) [Vinclozolin] | 1.18 | 1 | 5.76 | 5.01 | 3.56 | 3.46 | 3.32 | 3.11 | 3.61
18 | CCC(=O)C(CC(C)N(C)C)(c1ccccc1)c1ccccc1 (stereo unspecified) [Methadone Hydrochloride] | > 200 | 200 | 5.87 | 5.81 | 5.87 | 5.88 | 5.7 | 5.81 | 5.54
19 | OC(c1ccc(Cl)cc1)(c1cncnc1)c1ccccc1Cl (stereo unspecified) [Fenarimol] | 59.8 | 50 | 6.14 | 6.17 | 6.07 | 5.92 | 5.21 | 3.58 | 3.32
20 | c1ccc(-c2ccccc2)cc1 [Biphenyl] | 164 | 200 | 5.85 | 5.87 | 5.9 | 5.96 | 5.92 | 5.74 | 3.88
21 | CCOc1cccc(C2(N3CCN(c4ccccc4)CC3)CCC(C)CC2)c1 (stereo unspecified) | > 200 | 200 | 5.73 | 5.87 | 5.72 | 5.79 | 5.69 | 5.67 | 5.56
22 | CNC(=O)Oc1cccc2c1OC(C)(C)C2 [Carbofuran] | 198 | 100 | 5.92 | 5.92 | 5.84 | 5.89 | 5.75 | 5.39 | 4.54
23 | CS(=O)(=O)c1ccc(C(=O)C2C(=O)CCCC2=O)c([N+](=O)[O-])c1 [Mesotrione] | 107 | 200 | 5.87 | 5.92 | 5.92 | 6.03 | 5.9 | 5.68 | 5.41
24 | COCCOc1cc2cc(C(=O)NC3CCN(C(C)C)CC3)n(CC(=O)Nc3ccc(Cl)cn3)c2cn1 | 47.5 | 50 | 5.85 | 5.84 | 5.82 | 5.77 | 4.98 | 4.13 | 5.19

Row | Compound | AC50 for larval growth inhibition [1] [µM] | lowest effective concentration [2] [µM] | mean nematode size ln(EXT) (ln) ([3]; 0.5 µM) | mean nematode size ln(EXT) (ln) ([3]; 1 µM) | mean nematode size ln(EXT) (ln) ([3]; 5 µM) | mean nematode size ln(EXT) (ln) ([3]; 10 µM) | mean nematode size ln(EXT) (ln) ([3]; 50 µM) | mean nematode size ln(EXT) (ln) ([3]; 100 µM) | mean nematode size ln(EXT) (ln) ([3]; 200 µM)
25 | CNS(=O)(=O)c1cc(C(=O)N2CCC(CCN3C4CCC3CC(n3c(C)nc5ccccc53)C4)(c3cccc(F)c3)CC2)c(Cl)cc1F (stereo unspecified) | > 200 | 50 | 5.68 | 5.79 | 5.77 | 5.78 | 5.62 | 5.38 | 5.41
26 | Cn1c(=O)c2nc[nH]c2n(C)c1=O [Theophylline] | > 200 | 200 | 5.97 | 5.97 | 5.98 | 6.02 | 5.84 | 5.9 | 5.59
27 | N#CSCSc1nc2ccccc2s1 [TCMTB] | 34 | 50 | 5.93 | 5.84 | 5.81 | 5.78 | 4.12 | 3.48 | 3.4
28 | CO/C=C(/C(=O)OC)c1ccccc1Oc1cc(Oc2ccccc2C#N)ncn1 [Azoxystrobin] | > 200 | 200 | 5.84 | 5.87 | 5.93 | 5.9 | 5.8 | 5.85 | 5.5
29 | CN(C)C(=O)NC1(c2ccccc2)CCN(CCCC2(c3ccc(Cl)c(Cl)c3)CCCN(C(=O)c3ccccc3)C2)CC1 (stereo in doubt) |  | 50 | 5.96 | 5.67 | 5.69 | 5.74 | 5.62 | 5.35 | 5.63
30 | CCOCCOC(C)=O [2-Ethoxyethyl acetate] |  | > 200 | 6.11 | 6.11 | 6.07 | 6.08 | 6.07 | 6.04 | 6.57
31 | OCCNCCO [Diethanolamine] |  | > 200 | 6.04 | 6.05 | 6.04 | 6.02 | 6.1 | 6.07 | 5.79
32 | OC[C@H]1O[C@@](CO)(O[C@H]2O[C@H](CO)[C@@H](O)[C@H](O)[C@H]2O)[C@@H](O)[C@@H]1O [Sucrose] |  | > 200 | 6.01 | 5.97 | 6.04 | 5.98 | 5.84 | 5.87 | 5.82
33 | COc1ccc(-c2ccccc2)cc1NNC(=O)OC(C)C [Bifenazate] |  | > 200 | 5.62 | 5.82 | 5.8 | 5.93 | 5.25 | 5.68 | 5.87
34 | CCCCOCCO [2-Butoxyethanol] |  | > 200 | 5.93 | 5.98 | 5.92 | 6 | 6.01 | 5.84 | 5.81
35 | Cc1cc(-c2ccc(N)c(C)c2)ccc1N [o-Tolidine] |  | > 200 | 5.82 | 5.91 | 5.9 | 5.97 | 5.85 | 5.84 | 5.86
36 | O=c1n(Cl)c(=O)n(Cl)c(=O)n1Cl [Symclosene] |  | > 200 | 5.9 | 5.76 | 5.62 | 5.82 | 5.73 | 5.69 | 5.74
37 | CCNc1nc(Cl)nc(NC(C)C)n1 [Atrazine] |  | > 200 | 5.54 | 5.72 | 5.73 | 5.07 | 6.06 | 6.06 | 5.94
38 | CCOCN(C(=O)CCl)c1c(C)cccc1CC [Acetochlor] |  | > 200 | 6.04 | 6 | 6.11 | 6.25 | 6.04 | 6.05 | 6.15
39 | O=Cc1ccco1 [Furfural] |  | > 200 | 5.92 | 5.88 | 5.88 | 5.91 | 5.95 | 5.83 | 5.82
40 | CC(C)c1cccc(C(C)C)c1NC(=O)NS(=O)(=O)c1cc(C(C)(C)O)co1 |  | > 200 | 5.93 | 5.86 | 5.97 | 5.91 | 6 | 5.8 | 5.79
41 | Cc1ncc([C@@H](CCCCCCc2ccc3c(n2)NCCC3)CC(=O)O)cn1 |  | > 200 | 5.81 | 5.79 | 5.84 | 5.84 | 5.8 | 5.87 | 5.86
42 | CCC(C)OC(=O)N1CCCCC1CCO (stereo unspecified) [Icaridin] |  | > 200 | 5.45 | 5.77 | 5.76 | 6.03 | 5.43 | 5.79 | 5.97
43 | c1ccc(OP(Oc2ccccc2)Oc2ccccc2)cc1 [Triphenyl phosphite] |  | > 200 | 5.86 | 5.75 | 5.77 | 5.81 | 5.75 | 5.95 | 5.72
44 | O=P(O)(O)CCCl [Ethephon] |  | > 200 | 5.96 | 5.93 | 5.97 | 5.94 | 6.03 | 6.05 | 5.88
45 | O=P1(N(CCCl)CCCl)NCCCO1 (stereo unspecified) [Cytoxan hydrate] |  | > 200 | 5.87 | 5.9 | 5.89 | 5.8 | 5.92 | 5.9 | 5.93
46 | C1CNCCN1 [Piperazine] |  | > 200 | 5.84 | 5.81 | 5.85 | 5.84 | 5.89 | 5.84 | 5.74
47 | CN1CSC(=S)N(C)C1 [Dazomet] |  | > 200 | 5.73 | 5.62 | 5.46 | 5.71 | 5.78 | 5.55 | 5.83
48 | O=C(O)C(Cl)Cl [Dichloroacetic acid] |  | > 200 | 5.56 | 5.97 | 6.02 | 5.89 | 5.98 | 5.92 | 5.7
